# Test results published in patent US5656603A (Loyola University of Chicago, priority 1995, dated 1997).
# Key:
# endopeptidase 24.11 = biological target: T1, endopeptidase 24.11 (Bos taurus, UniProt E1BPL8); experiment: Specificity of apstatin: endopeptidase 24.11; assay type: biochemical; conditions: detergent extract of bovine lung; Suc-Ala-Ala-Phe-7-amido-4-methyl-coumarin, pH 6.8, HPLC-1
# T1 construct: Unless otherwise indicated, the source of each enzyme activity was a detergent extract of bovine lung; from tissue; host or cells: detergent extract of bovine lung
# T1 sequence (E1BPL8 1-750): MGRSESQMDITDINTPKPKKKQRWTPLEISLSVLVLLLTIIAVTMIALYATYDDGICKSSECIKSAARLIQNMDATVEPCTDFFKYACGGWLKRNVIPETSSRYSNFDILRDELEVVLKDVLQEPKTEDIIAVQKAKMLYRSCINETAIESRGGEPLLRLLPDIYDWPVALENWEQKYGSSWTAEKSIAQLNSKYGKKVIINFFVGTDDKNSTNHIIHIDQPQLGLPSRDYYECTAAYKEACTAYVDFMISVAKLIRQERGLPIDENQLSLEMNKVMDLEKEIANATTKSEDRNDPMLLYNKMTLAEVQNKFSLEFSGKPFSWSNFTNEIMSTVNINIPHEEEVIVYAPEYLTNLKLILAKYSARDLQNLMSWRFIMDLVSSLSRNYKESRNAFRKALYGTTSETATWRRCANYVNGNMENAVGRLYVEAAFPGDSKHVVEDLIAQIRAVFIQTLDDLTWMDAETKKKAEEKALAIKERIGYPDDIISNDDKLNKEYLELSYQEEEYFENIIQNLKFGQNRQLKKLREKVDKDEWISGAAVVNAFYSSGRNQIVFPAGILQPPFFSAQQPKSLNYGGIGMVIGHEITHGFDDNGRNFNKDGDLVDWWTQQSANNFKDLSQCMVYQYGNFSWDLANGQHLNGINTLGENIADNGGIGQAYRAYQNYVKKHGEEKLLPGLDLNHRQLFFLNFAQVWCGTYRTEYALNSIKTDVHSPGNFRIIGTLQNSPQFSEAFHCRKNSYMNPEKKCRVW
# Procedure: (§1) Specificity of Apstatin--Apstatin was assayed for its ability to inhibit several other peptidases. […] Unless otherwise indicated, the source of each enzyme activity was a detergent extract of bovine lung prepared as described in (12-13). Activities were determined by a modification of the fluorescent assay described above (indicated by "FLUO") or by HPLC separation and quantitation of reaction products using the method described in (12) (method "HPLC-1") or the method described below (method "HPLC-2"). […]
# microsomal dipeptidase = biological target: T2, microsomal dipeptidase (Rattus norvegicus, UniProt P31430); experiment: Specificity of apstatin: microsomal (membrane) dipeptidase; assay type: biochemical; conditions: purified, rat lung; Gly-D-Phe, pH 8.0, HPLC-1
# T2 construct: Membrane dipeptidase was purified from rat lung microsomes; from tissue; host or cells: rat lung microsomes
# T2 sequence (P31430 17-410): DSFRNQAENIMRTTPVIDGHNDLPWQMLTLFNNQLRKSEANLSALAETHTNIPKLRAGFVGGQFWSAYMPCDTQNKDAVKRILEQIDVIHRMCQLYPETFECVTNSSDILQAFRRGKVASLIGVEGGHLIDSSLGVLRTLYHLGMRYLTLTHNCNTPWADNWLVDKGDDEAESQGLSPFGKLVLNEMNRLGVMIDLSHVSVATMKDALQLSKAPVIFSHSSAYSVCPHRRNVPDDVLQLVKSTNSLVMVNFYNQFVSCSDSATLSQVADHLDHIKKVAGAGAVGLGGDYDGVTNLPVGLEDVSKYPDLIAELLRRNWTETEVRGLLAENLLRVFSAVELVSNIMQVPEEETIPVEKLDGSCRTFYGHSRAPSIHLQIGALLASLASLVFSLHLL
# Excerpt: Enzymes--Membrane-bound aminopeptidase P was purified to homogeneity from bovine lung (14) and from rat lung. Partially purified membrane-bound aminopeptidase P from human lung was obtained by treatment of lung microsomes with phosphatidylinositol-specific phospholipase C (B. thuringiensis) (ICN, Costa Mesa, Calif.) followed by centrifugation as described previously (14). Membrane dipeptidase was purified from rat lung microsomes (manuscript in preparation). Recombinant E. coli aminopeptidase P (22) and purified lamb kidney prolyl oligopeptidase (23) were generally supplied by Dr. Tadashi Yoshimoto (Nagasaki University). Purified porcine kidney prolidase and purified porcine kidney aminopeptidase M was obtained from Sigma (St. Louis, Mo.).
# as §1
smiles,measurement,setting,value
"C[C@H](NC(=O)[C@@H]1CCCN1C(=O)[C@@H]1CCCN1C(=O)[C@@H](O)[C@H](N)Cc1ccccc1)C(N)=O [apstatin, N-[(2S, 3R)-3-amino-2-hydroxy-4-phenylbutanoyl]-L-prolyl-L-prolyl-Lalaninamide]",IC50,endopeptidase 24.11,> 800 µM
same,IC50,microsomal dipeptidase,> 800 µM
